Data on four molecules can be found in patent publication US20040122218A1, “Pyrrolopyridine potassium channel openers” (priority 2002, published 2004).

Molecules are shown by their SMILES.

Data set [1] relates to Landrace pig bladders. The data set is described as follows: In vitro functional model: field-stimulated bladder tissue strips. Particulars: concentration range of 10^−9 to 10^−5 M, cumulative. On the procedure: In Vitro Functional Model
Compounds were evaluated for functional BK channel opening activity using tissue strips obtained from Landrace pig bladders. Landrace pig bladders were obtained from female Landrace pigs of 9-30 kg. Landrace pigs were euthanized with an intraperitoneal injection of pentobarbital solution, Somlethal®, J.A. Webster Inc., Sterling Mass. The entire bladder was removed and immediately placed into Krebs Ringer bicarbonate solution (composition, mM: NaCl, 120; NaHCO3, 20; dextrose, 11; KCl, 4.7; CaCl2, 2.5; MgSO4, 1.5; KH2PO4, 1.2; K2EDTA, 0.01, equilibrated with 5% CO2/95% O2 pH 7.4 at 37° C.). Propranolol (0.004 mM) was included in all of the assays to block β-adrenoceptors. The trigonal and dome portions were discarded. Strips 3-5 mm wide and 20 mm long were prepared from the remaining tissue cut in a circular fashion. The mucosal layer was removed. One end was fixed to a stationary glass rod and the other to a Grass FT03 transducer at a basal preload of 1.0 gram. Two parallel platinum electrodes were included in the stationary glass rod to provide field stimulation of 0.05 Hz, 0.5 milli-seconds at 20 volts. […] The maximal efficacy of each compound (expressed as % relative to P1075) is reported. […] Agonist potencies were also expressed as an index relative to P1075. The index was calculated by dividing the ED50 for P1075 by the ED50 for the test agonist in a given tissue. […]

`N#Cc1c(N2CCCCC2)[nH]c2cccnc12` [Example 18, 2-Piperidin-1-yl-1H-pyrrolo[3,2-b]pyridine-3-carbonitrile] displayed a melting point of 241 to 242 °C.

`N#Cc1c(N2CCC[C@@H]2CO)[nH]c2cccnc12` [Example 9, (R)-2-(2-Hydroxymethyl-pyrrolidin-1-yl)-1H-pyrrolo [3,2-b]pyridine-3-carbonitrile] registered a melting point of 207 to 209 °C.

On to `N#Cc1c(N2CCC[C@H]2CO)[nH]c2cccnc12` [Example 10, (S)-2-(2-Hydroxymethyl-pyrrolidin-1-yl)-1H-pyrrolo [3,2-b]pyridine-3-carbonitrile], for which the melting point is 207 to 209 °C.

Turning to `CCC(C)(C)N=C(NC#N)Nc1cccnc1` [Example P1075], in data set [1], the “effect on stimulated twitch” value was “completely eliminated the stimulated twitch”.
